According to ChEMBL document CHEMBL1201862, “PubChem BioAssay data set” (2004):
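96-well plates; 48 h exposure; 5 concentrations. Endpoints by linear interpolation between flanking doses. Not reached: highest tested concentration assigned. GI50: concentration for 50% inhibition of growth.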 Calls of active or inactive are those of the source. No stated cut-off is given here; in the data, active = GI50 up to about 1.1 µM and inactive = higher.

Key:
Assay in all cases: DTP human tumour cell line panel, 48 h
[1] = tested on: 786-0
[2] = tested on: CCRF-CEM
[3] = tested on: HCT-15
[4] = tested on: HOP-92
[5] = tested on: LOX IMVI
[6] = tested on: OVCAR-3
[7] = tested on: OVCAR-4
[8] = tested on: SF-539
[9] = tested on: SK-MEL-28
[10] = tested on: SK-OV-3
[11] = tested on: SN12C
[12] = tested on: SNB-19
[13] = tested on: SNB-75
[14] = tested on: SW-620
[15] = tested on: MCF7
[16] = tested on: MDA-MB-231
[17] = tested on: NCI/ADR-RES

| Structure (SMILES) | GI50 [1] | GI50 [2] | GI50 [3] [µM] | GI50 [4] | GI50 [5] | GI50 [6] | GI50 [7] | GI50 [8] | GI50 [9] | GI50 [10] | GI50 [11] | GI50 [12] | GI50 [13] | GI50 [14] | GI50 [15] | GI50 [16] | GI50 [17] |
| --- | --- | --- | --- | --- | --- | --- | --- | --- | --- | --- | --- | --- | --- | --- | --- | --- | --- |
| Cc1cc2occ(-c3ccc(Cl)cc3)c2c(=O)o1 | > 100 µM (inactive) | > 100 µM (inactive) | > 100 | > 100 µM (inactive) | 72.8 µM (inactive) | > 100 µM (inactive) | > 100 µM (inactive) | > 100 µM (inactive) | > 100 µM (inactive) | > 100 µM (inactive) | > 100 µM (inactive) | > 100 µM (inactive) | 55.7 µM (inactive) | > 100 µM (inactive) |  |  |  |
| COc1ccc(OC)c(/C=N/N=C(\N)NO)c1 | 21.4 µM (inactive) | 16.6 µM (inactive) | 5.98 | 23.3 µM (inactive) | 2.84 µM (inactive) | 23.8 µM (inactive) | 7.28 µM (inactive) | 7.62 µM (inactive) | 75.7 µM (inactive) | 30.7 µM (inactive) | 31.4 µM (inactive) | 88.7 µM (inactive) | 72.4 µM (inactive) | 24.3 µM (inactive) |  |  |  |
| C[C@H]1C=C2C(=O)O[C@H]3CC[C@@H](C1)[C@@]23O | 3.28 µM (inactive) | 2.01 µM (inactive) | 3.65 | 5.25 µM (inactive) | 2.55 µM (inactive) | 5.38 µM (inactive) | 10.3 µM (inactive) | 2.03 µM (inactive) | 4.07 µM (inactive) | 8 µM (inactive) | 2.4 µM (inactive) | 16.3 µM (inactive) | 5.87 µM (inactive) | 3.28 µM (inactive) |  |  |  |
| Cc1cccc(/N=N/c2ccc(/N=N/c3c(O)ccc4ccccc34)cc2C)c1 | 83.6 µM (inactive) | > 100 µM (inactive) | > 100 | 32.2 µM (inactive) |  | > 100 µM (inactive) | > 100 µM (inactive) | 36.2 µM (inactive) | > 100 µM (inactive) | 28.4 µM (inactive) |  | 38.2 µM (inactive) | 0.144 µM (active) | > 100 µM (inactive) | > 100 µM (inactive) | > 100 µM (inactive) | 13.4 µM (inactive) |
| Cc1cc(C)nc(NS(=O)(=O)c2ccc(Nc3c4ccccc4nc4c(C(=O)Nc5ccc(S(N)(=O)=O)cc5)cccc34)cc2)n1 | > 100 µM (inactive) | > 100 µM (inactive) | 47.1 | 30.9 µM (inactive) | 75.9 µM (inactive) | 66.5 µM (inactive) | 85.5 µM (inactive) | > 100 µM (inactive) | 83.9 µM (inactive) | 11.8 µM (inactive) | > 100 µM (inactive) | 47 µM (inactive) | 25.8 µM (inactive) | > 100 µM (inactive) |  |  |  |
| CCN(CCCl)CCCNc1c2ccccc2nc2ccc(OC)cc12 | 0.114 µM (active) | 0.0993 µM (active) | 0.257 | 0.133 µM (active) | 0.129 µM (active) | 1.1 µM (active) | 0.682 µM (active) | 0.142 µM (active) | 0.743 µM (active) | 1.04 µM (active) | 0.0548 µM (active) | 1.05 µM (active) | 0.635 µM (active) | 0.0371 µM (active) |  |  |  |
| OC1(C(Sc2ccccc2)Sc2ccccc2)CCCCCC1 | 22.4 µM (inactive) | 25.2 µM (inactive) | 24.4 | 28.6 µM (inactive) | 19.3 µM (inactive) | 20.9 µM (inactive) | 6.19 µM (inactive) | 21.9 µM (inactive) | 56.1 µM (inactive) | 22.5 µM (inactive) | 16.2 µM (inactive) | 14.1 µM (inactive) | 33.4 µM (inactive) | 26.2 µM (inactive) |  |  |  |
| CCCCc1c2c(nc3c1CCc1cc(C=O)c(N)nc1-3)/C(=C/c1ccccc1)CCC2 | > 100 µM (inactive) | > 100 µM (inactive) | 86.3 | > 100 µM (inactive) | > 100 µM (inactive) | > 100 µM (inactive) | > 100 µM (inactive) | > 100 µM (inactive) | > 100 µM (inactive) | > 100 µM (inactive) | > 100 µM (inactive) | > 100 µM (inactive) | > 100 µM (inactive) | > 100 µM (inactive) |  |  |  |
| O=C(Nc1nc2ncn(CCI)c2c(=O)[nH]1)c1ccccc1 | 46.1 µM (inactive) | > 100 µM (inactive) | 98.6 | 27.9 µM (inactive) | > 100 µM (inactive) | 52.8 µM (inactive) | > 100 µM (inactive) | 26.1 µM (inactive) | > 100 µM (inactive) | 33.7 µM (inactive) | 59.3 µM (inactive) | 41.9 µM (inactive) | 20.5 µM (inactive) | > 100 µM (inactive) |  |  |  |
